For assay [1], the target named is β1 receptors, guinea pig right atria (Cavia porcellus, UniProt H0W3H1). The assay is described as follows: cell-based. The following applies: Table I; guinea pig right atria, vs isoproterenol; -log KB; read-out: PA2 Rt. Atria (converted). On the procedure: Each tissue was suspended between a fixed glass rod and a Statham Universal Transducer connected to a Beckman recorder. Atria were allowed to beat spontaneously under a loading tension of approximately 0.5 gm. Intrinsic depressant or stimulant activity was determined for each compound by progressively increasing concentrations in the tissue baths at 60-minute intervals. Tissues were not washed between increments. The maximum concentration showing little or no cardiodepressant activity was chosen for blockade experiments. Changes in rate in response to isoproterenol, a standard β-receptor agonist, were measured in the absence and presence of test compounds. Spiral strips of guinea pig trachea were suspended under 5 gm resting tension and incubated with phentolamine, tropolone and cocaine. Active tension was generated by addition of carbachol (3.0×10^-7 M) and decreases in tension in response to isoproterenol were quantitated. Cumulative concentration-response curves were produced with isoproterenol both before and after 60-minute incubation of test compounds with atria and trachea. […] The blocking potency of test compounds was estimated by computing pA2 values (-log KB) by the method of Furchgott, the Pharmacological Differentiation of Adrenergic Receptors, Ann. […] The degree of cardioselectivity was estimated from the ratio, KB trachea/KB atria (10^(pA2 atria-pA2 trachea)). A ratio greater than one indicates cardioselectivity. Test drugs were dissolved in distilled water and added to the bath (30 ml) in a volume of 10 or 100 μl.

The subject of assay [2] is heart rate response to isoproterenol. The assay is described as follows: Duration and potency of beta-blocking action in vivo, 3-hour infusion in anesthetized dogs, isoproterenol challenge. Further details: species or system dog. As to conditions: Table II; for Recovery Time 50%: 50% recovery from β-blockade after termination of infusion; for Recovery Time 80%: 80% recovery from β-blockade after termination of infusion; for % I, percent inhibition of heart rate response to isoproterenol: end of 3-hour infusion, isoproterenol 0.5 μg/kg. The method, then:
The duration of β-blockade was determined In vivo using pentobarbital-anesthetized dogs instrumented for measurement of heart rate using a Beckman cardiotachometer triggered electronically by a phasic aortic blood pressure signal. Both vagus nerves were served in the cervical region and the animals were mechanically ventilated. The experimental design used employed a 3-hour infusion of test compound. Bolus doses of isoproterenol (0.5 μg/kg) were used to assess the degree of β-blockade and recovery from β-blockade after […] of the infusion. The doses were spaced at 10-minute intervals and were given before, during and following the infusion of test compounds. The infusion rate was adjusted so that at the end of the 3-hour infusion period the degree of isoproterenol inhibition averaged about 50% of control. Following termination of blocker infusion, percent recovery from β-blockade was computed and the time associated with 80% recovery estimated.
^c Time in minutes for 50% recovery from 50% blockade levels after 3
Infusions of drug. Number of experiments is equal to or greater than thre
for each compound unless noted otherwise. Tabulated data are mean values
^c The betablocking activities were evaluated Invivo in a canine
model. The betablocker was infused in the animal for 3 hours with the dos
adjusted to give approximately 50%. blockage of the Isoproternolinduced
tachycardia. The infusion was then terminated and the time required for
80% recovery of blockade was recorded as duration of action of the
compound. The amount of drug infused during the 3 hours was averaged and
expressed as potency in ug/kg/min.

The values below come from patent US4906661A, “Esters of aryloxypropanolamine derivatives” (E. I. Du Pont de Nemours and Company, priority 1989, dated 1990).

Where “and” joins values, the source holds several entries; their conditions need not be identical. Equal entries are not always repeated.

Chain of β1 receptors, guinea pig right atria (H0W3H1 1-470): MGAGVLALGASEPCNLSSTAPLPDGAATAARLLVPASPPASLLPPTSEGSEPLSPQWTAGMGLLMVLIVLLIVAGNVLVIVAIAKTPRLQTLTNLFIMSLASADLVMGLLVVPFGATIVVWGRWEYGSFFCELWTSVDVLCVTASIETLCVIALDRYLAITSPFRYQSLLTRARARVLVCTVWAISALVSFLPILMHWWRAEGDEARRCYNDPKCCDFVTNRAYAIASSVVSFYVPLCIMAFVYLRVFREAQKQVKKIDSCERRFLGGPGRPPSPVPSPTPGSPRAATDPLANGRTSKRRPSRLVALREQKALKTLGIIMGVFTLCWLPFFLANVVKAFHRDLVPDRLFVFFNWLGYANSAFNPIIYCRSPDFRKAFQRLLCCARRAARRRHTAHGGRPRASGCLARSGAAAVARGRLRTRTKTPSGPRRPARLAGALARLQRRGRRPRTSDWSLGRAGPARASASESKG

Take `COC(=O)c1ccccc1OCC(O)CNCCNC(=O)Cc1ccccc1` (stereo not drawn) [III, Methyl 2-[2-Hydroxy-3-[N-[2-(phenylacetamido)ethyl]amino]propoxy]benzoate]: the Kb in assay [1] was 5.01 nM. Moreover, in assay [2], the “Recovery Time 50%” value is 20 min and 19 min; the “Recovery Time 80%” value is 40 min and 45 min; the “% I, percent inhibition of heart rate response to isoproterenol” value (from here on “% I, percent inhibition”) is 57% and 60%.

For the compound `COC(=O)c1ccccc1OCC(O)CNCCNC(C)=O` (stereo not drawn) [Example I, Methyl 2-[2-Hydroxy-3-[N-2(-acetamidoethyl)amino]propoxy]benzoate], the Kb in assay [1] was 50.1 nM. In assay [2], the “Recovery Time 50%” value is given as 8 ± 1 min; the “Recovery Time 80%” value was 18 ± 1 min; the “% I, percent inhibition” value is listed as 54 ± 2%.

For `COC(=O)c1ccccc1OCC(O)CNCCNC(=O)C(C)C` (stereo not drawn) [II, Methyl 2-[2-Hydroxy-3-[N-[2-(2-methylpropionamido)ethyl]amino]propoxy]benzoate], in assay [1], the Kb was 7.94 nM. In assay [2], the “Recovery Time 50%” value came out at 7 ± 1 min; the “Recovery Time 80%” value is on record as 17 ± 1 min; the “% I, percent inhibition” value turned out to be 59 ± 2%.
